Values joined by “and” are separate entries in the source; they are usually repeats but may differ in a detail not shown here. Identical values can stand only once.

These results are taken from PMC1940322, “The Effect of PPARα, PPARδ, PPARγ, and PPARpan Agonists on Body Weight, Body Mass, and Serum Lipid Profiles in Diet-Induced Obese AKR/J Mice” (PPAR Research, 2007).

The test system of assay [1] is fatty acid oxidation in mouse liver. In words: Ex vivo fatty acid oxidation in liver homogenates (14C-CO2 capture). Particulars: liver extracts from animals treated for 28 days. The protocol: Fatty acid oxidation (FAO) was determined by ^14C-labeled CO2 capture from tissue homogenates using a method modified from Dohm et al.. Following treatment with either vehicle or a PPAR agonist, livers from fed mice were surgically removed and a section excised from the same lobe. The tissue was immediately weighed, minced with scissors and placed in tubes (Falcon #2063) on ice. Cold SET buffer (250 mM Sucrose, 1 mM EDTA, 10 mM Tris, pH 7.4) was added at a ratio of 10 mL SET:1 gram of tissue and the tissue homogenized on ice for 15 sec using a hand-held homogenizer (Polytron PT1200; Kinematica AG). The homogenates remained on ice until assayed.
The labeled reaction buffer was prepared by first drying ^14C-oleic acid (0.5 μCi/reaction; PerkinElmer #NEC-317) under nitrogen. The dried fraction is re-suspended in unlabeled oleic acid such that the final concentration of oleic acid in the reaction buffer was 0.2 mM. BSA was added slowly while mixing to a final concentration of 0.5% and the mixture was incubated at 37°C for 15 minutes. The labeled cocktail was then added to the reaction buffer to give a produce concentration of 100 mM sucrose, 10 mM Tris pH 7.4, 4 mM ATP, 0.05 mM Coenzyme A, 0.1 mM malic acid, 1 mM magnesium chloride, 80 mM potassium chloride, 5 mM potassium phosphate, 0.2 mM EDTA, and 2 mM L-carnitine, as described previously.
Oxidation reactions were performed in tubes (Falcon #352059) fitted with a stopper top (KONTES Glass Co., #882310-0000), center well (KONTES #882320-0000), and filter (Socorex #322.02) soaked with 175 μL of 1N NaOH. 100 μL of homogenate was dispensed into each tube and the reactions initiated by adding 400 μL of reaction buffer. The tubes were quickly capped and incubated with gentle shaking for 60 minutes in a 37°C water bath. After incubation, the filters were removed, from the tubes, placed in 7 mL of scintillant, and counted for 2 minutes (PerkinElmer Tri-Carb 3100TR). The oxidative activity of each compound was calculated as nmole CO2 captured/gram tissue/hour and reported as fold change relative to vehicle control.
(§1) On the final day of each experiment, a terminal blood sample (800–1000 μL) was obtained via cardiac puncture under isoflurane anesthesia. Whole blood was placed in a Terumo Capiject blood collection tube (Terumo Medical Corp., Elkton, Md, USA), allowed to sit at room temperature for 20 minutes then centrifuged to obtain serum. Serum levels of glucose, triglycerides, glycerol, nonesterified fatty acids, total cholesterol, the high-density lipoprotein cholesterol, and β-hydroxybutyrate were determined in all mice using an Olympus AU640 clinical chemistry immuno-analyzer (Olympus America Inc., Melville, NY, USA). In addition, liver weights were obtained following the terminal blood sample on the final day of the study and samples were used to determine liver fatty acid oxidation activity.

In assay [2] the test system is diet-induced obese (DIO) AKR/J mouse. In words: Serum clinical chemistry of terminal blood samples, DIO AKR/J mice. Particulars: for Cholesterol / Glucose / HDL-C / Insulin / NEFA / Triglyceride / bHBA: serum, end of treatment, 28 days; for effect on serum chemistry (in words): terminal serum after 28 days. The class given is in vivo. The protocol: as §1
The target in assay [3] is T1, murine PPARα (Mus musculus, UniProt P23204).
T1 construct: expressed in transfected cells; host or cells: CV-1 cells
T1 sequence (P23204 239-466 limits assumed): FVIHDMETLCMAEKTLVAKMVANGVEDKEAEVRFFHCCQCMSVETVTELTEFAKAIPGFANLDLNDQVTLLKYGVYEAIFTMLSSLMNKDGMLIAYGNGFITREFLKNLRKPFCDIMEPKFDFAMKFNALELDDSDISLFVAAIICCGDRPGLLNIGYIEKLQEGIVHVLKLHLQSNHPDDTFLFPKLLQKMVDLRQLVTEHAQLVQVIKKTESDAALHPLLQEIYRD
As to the kind of experiment: PPAR-GAL4 transient transfection transactivation assay (SPAP reporter) in CV-1 cells, PPARα. The class given is cell-based. Particulars: for EC50: CV-1 cells, GAL4 chimera, read-out: mPPARα, murine receptor activation EC50; for mPPARα %Max: maximal activation vs reference comparator. The protocol:
The functional potency of selected ligands was evaluated using a transient transfection assay in CV-1 cells. The ligand binding domains for murine PPARα, PPARδ, and PPARγ were fused to the yeast transcription factor GAL4 DNA binding domain as a chimera. CV-1 cells were propagated and transiently transfected with expression vectors for the respective PPAR chimera as previously described. Test compounds were compared to reference comparators that give maximum responses in this assay. Compounds which produced an activation of at 70% or greater, compared to a positive control, were considered full agonists.

Assay [4] concerns diet-induced obese (DIO) AKR/J mouse. In words: Food consumption in diet-induced obese AKR/J mice. The class given is in vivo. The settings on record: for effect on food consumption (in words): compared to vehicle-treated animals, doses and regimen as in methods. The protocol:
In each experiment, BW of each animal was measured and recorded three times weekly throughout the treatment period. Body mass was obtained weekly on days 0, 7, 13, 20, and 27 of treatment. The effects of selective PPARα, δ, and γ agonists on food consumption were also assessed. Food consumption is expressed as total energy consumed (kcal) over a 24-period and as cumulative consumption over the course of the experiment.
The fat content of Research Diets D12331 chow results in pellets that crumbles making it difficult to quantify food consumption thus, Research Diets D12451 chow (4.7 kcal/g (45% kcal from fat, 35% kcal from carbohydrates and 20% kcal from protein)) was used in studies where food consumption was determined as these pellets are more solid. The animals were transitioned two weeks before compound dosing from Research Diets D12331 chow to Research Diets D12451 chow. Previous experiments (data not presented) have shown that animals fed this diet maintain the same BW and fat mass level as observed at the time of transition.
Experiment 1 was designed to study the effects of a selective PPARα agonist and PPARδ agonist as mono and combination therapy. 48 mice were sorted into 6 groups and blocked such that initial BW and body composition were not different between groups. […] Two additional groups of mice were dosed for the first 14 days with either a PPARα agonist or a PPARδ agonist alone. At day 15, the PPARδ agonist was added to the treatment regimen of animals dosed with PPARα, and the PPARα agonist was added to the dosing material of animals previously dosed with PPARδ alone. The sixth group was dosed with both the PPARα and PPARδ agonists for the entire 28-day period. BW and food consumption were assessed 3 times per week and body composition was measured weekly.
In Experiment 2, 32 mice were sorted into 4 groups (n = 8/group) and dosed with vehicle and a selective PPARγ agonist (GW7845, 3 mg/kg) for 28 days. Rimonabant (RIM, 10 or 30 mg/kg, q.d.), a CB1 receptor antagonist, was used as a positive control for weight loss. As in Experiment 1, BW and food consumption were determined 3 times per week and body composition was measured weekly.

In general, EC50 refers to the concentration giving half of the maximal effect. Take `COC(=O)c1ccccc1N[C@@H](Cc1ccc(OCCc2nc(-c3ccccc3)oc2C)cc1)C(=O)O` [GW7845]: in assay [1], the “effect on liver FAO (in words)” value was “no effect on FAO in mouse liver”. The “effect on liver FAO (in words)” value in assay [1] (listed as PPARγ agonist) was “not different from vehicle”. In assay [2] (3 mg/kg oral), this compound gave a Cholesterol of 106.1 ± 4.2 mg/dL, a Glucose of 222.3 ± 9.4 mg/dL, an HDL-C of 65.0 ± 0.9 mg/dL and an Insulin of 2.1 ± 0.4 ng/mL. In assay [2] (3 mg/kg oral), this compound showed an NEFA of 0.6 ± 0.03 mEq/L, a Triglyceride of 112.3 ± 5.7 mg/dL and a bHBA of 1.5 ± 0.1 mg/dL. Moreover, the “effect on serum chemistry (in words)” value in assay [2] is “significant reduction in circulating INS, TG, and NEFA levels”. In addition, in assay [3], the EC50 stood at 10.8 µM and the “mPPARα %Max” value came to 30%. The “increase in food consumption” value in assay [4] (3 mg/kg, after only one day) stood at 46%. Further, in assay [4] (3 mg/kg, over the remaining treatment period), the food consumption elevated result is reported as “more than 20%”.

Consider `CCCCCCCN(CCc1ccc(SC(C)(C)C(=O)O)cc1)C(=O)Nc1ccc(F)cc1F` [GW9578], for which the “effect on liver FAO (in words)” value in assay [1] is listed as “not different from vehicle”. Moreover, in assay [2] (1 mg/kg oral), the Cholesterol worked out at 117.1 ± 4.1 mg/dL, the Glucose was 248.0 ± 16.6 mg/dL, the HDL-C stood at 86.6 ± 2.7 mg/dL and the Insulin came out at 3.1 ± 1.6 ng/mL. In assay [2] (1 mg/kg oral), the NEFA is given as 0.9 ± 0.04 mEq/L, the Triglyceride is listed as 168.3 ± 15.4 mg/dL and the bHBA was 3.2 ± 1.1 mg/dL. The “effect on serum chemistry (in words)” value in assay [2] was “significantly reduced circulating insulin (INS) levels”. Moreover, in assay [3], the EC50 was 0.008 µM and 0.0081 µM; the “mPPARα %Max” value was 95%. Further, the “selectivity for PPARα over PPARγ and PPARδ” value in assay [3] (murine receptors) is given as more than 250 fold. In addition, in assay [4], the “effect on food consumption (in words)” value was “significant suppression of food intake”. In addition, the “effect on food consumption (in words)” value in assay [4] (listed as PPARα agonist) is “reduced food consumption”.

As to `Cc1cc(SCc2sc(-c3ccc(C(F)(F)F)c(F)c3)nc2C)ccc1OCC(=O)O` [GW0742], the “effect on liver FAO (in words)” value in assay [1] is recorded as “significant increase in liver FAO”. In addition, the “increase in FAO” value in assay [1] (relative to vehicle control) was 1.9 fold. In assay [2] (30 mg/kg oral), this compound registered a Cholesterol of 171.9 ± 2.9 mg/dL, a Glucose of 253.3 ± 8.9 mg/dL, an HDL-C of 118.4 ± 1.6 mg/dL and an Insulin of 2.2 ± 1.2 ng/mL. Further, in assay [2] (30 mg/kg oral), the NEFA was 0.9 ± 0.02 mEq/L, the Triglyceride came to 174.9 ± 10.3 mg/dL and the bHBA amounted to 3.8 ± 0.3 mg/dL. The “effect on serum chemistry (in words)” value in assay [2] is “significantly reduced circulating insulin (INS) levels”. In assay [3], the EC50 was found to be 8.81 µM and the “mPPARα %Max” value was 55%. The “effect on food consumption (in words)” value in assay [4] is recorded as “transient stimulatory effect on food intake from days 12–17”. For the same compound, the “effect on food consumption (in words)” value in assay [4] (listed as PPARδ agonist) is “small but statistically significant increase in feeding”.
